Data published in ChEMBL document CHEMBL5727757, “Methods, compositions, and uses of novel Fyn kinase inhibitors” (2020).

Target: Tyrosine-protein kinase Fyn (Homo sapiens, UniProt P06241)
Assay: ADP-Glo Kinase Assay: The assay procedure determines the IC50 of each potential FYN kinase inhibitor by measuring the enzyme catalyzed ATP-dependent phosphorylation of the FYN substrate peptide. The ADP-Glo™ Kinase Assay is specifically designed to quantify kinase activity by measuring the ADP produced in the reaction The reaction buffer comprises 40 mM Tris.HCl (pH 7.5), 20 mM MgCl2, 0.1 mg/ml BSA and 5 microM DTT. Individual compounds within the chemical library were dissolved in DMSO at known concentrations. Briefly, 2.5 microliters of reaction buffer containing 3 picograms of FYN kinase and serial dilutions of each potential FYN kinase inhibitor (9 3-fold dilutions of a 10 micromolar top sample) are placed into each well of a 384 well microtiter plate and incubated at room temperature for 30 minutes. An additional 2.5 microliters of reaction buffer containing 100 picograms of the FYN substrate and 12.5 picomoles of ATP are then added to each well and the reaction carried out for 90 minutes at room temperature.

Chain of Tyrosine-protein kinase Fyn (P06241 whole entry): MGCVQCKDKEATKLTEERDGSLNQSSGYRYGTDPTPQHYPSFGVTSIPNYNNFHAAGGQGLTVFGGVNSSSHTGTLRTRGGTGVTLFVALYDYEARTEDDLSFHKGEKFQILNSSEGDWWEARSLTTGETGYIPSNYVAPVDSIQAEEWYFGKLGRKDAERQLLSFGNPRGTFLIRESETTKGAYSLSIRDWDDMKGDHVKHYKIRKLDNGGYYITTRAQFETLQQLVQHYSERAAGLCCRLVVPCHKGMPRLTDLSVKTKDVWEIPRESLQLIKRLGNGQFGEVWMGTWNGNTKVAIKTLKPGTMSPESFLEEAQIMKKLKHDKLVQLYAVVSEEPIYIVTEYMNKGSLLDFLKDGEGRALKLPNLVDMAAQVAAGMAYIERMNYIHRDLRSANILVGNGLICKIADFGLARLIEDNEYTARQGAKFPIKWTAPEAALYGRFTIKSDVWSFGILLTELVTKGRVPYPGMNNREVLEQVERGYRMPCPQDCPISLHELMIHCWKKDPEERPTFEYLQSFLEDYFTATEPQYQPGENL

Row | IC50 [nM] | SMILES
1 | 330 | COc1cc(-c2nn([C@H]3CC[C@H](N4CCN(C)CC4)CC3)c3ncnc(N)c23)ccc1NC(=O)c1cc2ccccc2n1C
2 | 8 | COc1ccc2c(c1)-c1nc(Nc3ccc(CCCN4CCCC4)c(OC)c3)ncc1CC2(C)C
3 | 6.69 | COc1cc2ncnc3c2cc1OCCCCCN(C(=O)OCc1ccccc1)Cc1ccc2c(c1N3)OCO2
4 | 8 | COc1ccc2c(c1)-c1nc(Nc3cc(C)c(OCCN(C)C)c(C)c3)ncc1CC2
